In publication doi:10.1101/2025.01.07.631748, “Strategic Modulation of Polarity and Viscosity Sensitivity of Bimane Molecular Rotor-Based Fluorophores for Imaging α-Synuclein” (bioRxiv, 2025):

Columns and labels:
α-synuclein (αS) fibrils [1] = molecular target: T1, α-synuclein (αS) fibrils (Homo sapiens, UniProt P37840); assay: fluorescence turn-on binding titration with αS fibrils
T1 construct: gene SNCA

α-synuclein (αS) fibrils [2] = molecular target: T1, α-synuclein (αS) fibrils; assay: fluorescence competition binding with 3c and 4a; fluorescence turn-on

SMILES | Kd (α-synuclein (αS) fibrils [1]) | fluorescence competition binding with 3c and 4a; fluorescence turn-on (α-synuclein (αS) fibrils [2])
Cc1c(C)n2c(/C=C/c3ccc(N4CCOCC4)cc3)c(C)c(=O)n2c1=O [3e, RBF 3e] | 3d and 3e, with cyclic amines, showed reduced affinity | –
Cc1c(C)n2c(/C=C/c3ccc(N4CCC4)cc3)c(C)c(=O)n2c1=O [3d, RBF 3d] | 3d and 3e, with cyclic amines, showed reduced affinity | –
Cc1ccc2c(c1)sc(-c1ccc(N(C)C)cc1)[n+]2C [ThT, Thioflavin-T] | – | both 3c and 4a competed with the promiscuous binder ThT, but that some ThT emission remained at saturating concentrations
